Key:
[1] = test system: pooled fecal microbiota from healthy lean subjects; test: TIM-2 in vitro fermentation model, SCFA analysis; type: cell-based, human
Description: The in vitro fermentation studies were done using the TIM-2 model. This is a validated, dynamic, computer-controlled model that simulates the human colon, mimicking body temperature, lumen pH, absorption of water and microbial metabolites through a semipermeable membrane inside the model, mixing and transporting the intestinal contents with peristaltic movements, using an anaerobic microbiota from human origin, it corresponds basically to the model as described in Minekus, M., et al. Appl. Microbiol. Biotechnol. 1999 53, 108 --- 114. doi: 10.1007/ s002530051622 and Kortman et al., Frontiers in Microbiology 2016, 6, 1481.
Characteristics of the movements of the contents in the TIM-2 system were simulated using an increase of the pH and peristaltic movements of the contents in the system using peristaltic pumps as described in Minekus, M (1998. Development and validation of a dynamic model of the gastrointestinal tract. PhD thesis, Delft University of Technology, The Netherlands).
SCFA analysis was performed at Brightlabs B.V., Venlo, The Netherlands), according to (Sáyago-Ayerdi SG, et al. Food Research International, E-pub date 13 Dec. 2017; Sayago Ayerdi et al Food Research International 118 (2019) 89-95).
Pooled fecal microbiota samples from 11 healthy lean subjects not suffering from any metabolic disease was used to inoculate the TIM-2 in vitro fermentation model.
The fecal microbiota was freshly sampled in and stored directly (within 2 h) on ice and under anaerobic conditions. Next, in an anaerobic cabinet, samples were diluted 1:1 with dialysate, and pooled at approximately equal weight, after which glycerol was added (to a final concentration of 12-13 w/w) and aliquots (30 ml/tube) were frozen in liquid nitrogen and stored at -80 ℃. […]
Samples (1 mL) were taken for SCFA analysis after 1, 2, 4, 6, 8 and 24 h after test product insertion; cumulative absolute amounts of SCFA were determined. […] The acids were detected using suppressed conductivity detection. […]

[2] = addition to infant formula; cited from earlier work
[3] = overweight men, cited from earlier work
[4] = TIM-2, microbiota of lean subjects (18.5 kg/m^2 ≤ BMI < 25 kg/m^2), 8-24 h, represents distal colon, single shot 7.5 g 2′-FL (± 7.5 g RS)
[5] = administered in the distal part of the colon

| Compound | SCFA levels and in particular acetate levels in the distal colon (in words) ([1]; TIM-2, lean subjects' microbiota) | Acetate produced between 8 and 24 hours after insertion of the test product [1, 4] [mmol] | SCFA produced between 8 and 24 hours after insertion of the test product [1, 4] [mmol] | safety and tolerance [2] | circulating plasma concentrations of peptide YY (PYY) [3, 5] | fat oxidation [3, 5] | energy expenditure or substrate oxidation ([3]; administered in the proximal colon) |
| --- | --- | --- | --- | --- | --- | --- | --- |
| 2′-Fucosyllactose [2′-FL w/o RS] | increased | 12 | 21 | safe and well-tolerated | – | – | – |
| CC(=O)[O-].[Na+] [sodium acetate] | – | – | – | – | significantly increased | significantly increased | no effect |

From US20230189864A1, “NON-THERAPEUTIC METHODS FOR MAINTAINING A HEALTHY BODY WEIGHT OR LOSING BODY WEIGHT” (FrieslandCampina Nederland B.V., priority 2019, published 2023)
